Laboratory results reported in patent US11980667B2, “Short TAT oligomers for drug delivery” (The Trustees of Columbia University in the City of New York, priority 2017, dated 2024).
Several values for one entry are separate records, joined by “and”; a condition that tells them apart may be missing. Equal entries are not always repeated.

Tests used:
[1] = test system: 9L glioma tumors; experiment: Single arrest study: IV versus IA-TCH (multi-spectral imaging and confocal microscopy); type: in vivo, rat
Protocol: Single Arrest Study. 9L glioma tumors were implanted into eight rats. […] Animals were sacrificed 15 minutes after injection. […] Brain tissues were also hematoxylin and eosin stained and imaged by confocal microscopy.

[2] = test system: 9L glioma; experiment: Quantitative tumor TAT-FITC uptake, electron multiplying charge-coupled device imaging; type: in vivo, rat
Description: In addition to the standard fluorescence imaging described above, we assess tumor uptake of TAT-FITC using a higher resolution, quantitative tool utilizing an electron-multiplying charge coupled device. To accomplish this we used two warm white light LEDs to evenly illuminate the tissue samples through a narrow (10 nm) band pass filter with 470 nm central transmission (Thor Labs, New Jersey). An Evolve 520 high sensitivity electron multiplying charge-coupled device (Photometeric Inc. Tucson, AZ) was utilized while using a 520 nm narrow band pass filter. Each sample was normalized to the background and to the injected drug concentrations. Four 2 mm sections were interrogated for each specimen on either side of the plane of tumor implantation. The data was corrected for ambient light, tissue independent background fluorescence, and contralateral hemisphere tissue fluorescence.

[3] = Delivery of cell-penetrating peptides to the brain of healthy rats, confocal microscopy; type: in vivo, rat
Description: Animal preparation, IA-TCH injection, and brain tumor implantation. Animal protocols were approved by the Columbia University Institutional Animal Care and Use Committee (IACUC). Studies were primarily conducted on Sprague-Dawley rats weighing 250 to 300 grams. In the case of electron multiplying charge-coupled device imaging studies, Fisher 344 rats implanted with 9L brain tumors were utilized. The surgical preparation including anesthesia, carotid and femoral cannulation, cerebral blood flow and vital sign monitoring, as well as in vivo fluorescence imaging have been previously described in detail.
IA injections of cell-penetrating peptides (CPPs) were made during TCH as 65 μL pulses totaling 1 ml in volume. TCH was produced by a bolus injection of adenosine, esmolol, and cold saline. Animals were allowed to hemodynamically recover from TCH and euthanized 10 minutes after injection. Uptake of CPPs was assessed with a fluorescence camera and with confocal fluorescence microscopy.
Cell-penetrating peptides. Two experimental cell-penetrating peptides were tested: 1. octaarginine, also called (Arg)8 or R-8 (SEQ ID NO: 13) and 2. trans-activator of transcription or TAT (Lifetien Inc.). The 14 amino acid peptide sequence for TAT is […]COOH (SEQ ID NO: 11). Both cell-penetrating peptides (CPPs) were labeled with fluorescein so that their distribution could be identified by multispectral imaging and with fluorescence microscopy of the frozen brain sections.
Fluorescence and electron multiplying charge-coupled device imaging.

[4] = test system: 9L glioma tumor; experiment: In vivo uptake of TAT dimer versus monomer by IA-TCH (MSI and confocal imaging); design: species or system rat; conditions: dimer 0.25 mg, monomer 0.125 mg, five rats each
Protocol: An additional experiment was performed to assess the in vivo uptake of fluorescein-labeled TAT dimer by IA-TCH. About 14 days after 9L glioma tumor implantation, rats were anesthetized and prepared for TAT dimer delivery experiments. TAT dimer was conjugated with fluorescein such that its concentrations in post mortem samples could be determined immediately by multispectral imaging and confocal imaging. TAT dimer (0.25 mg) and monomer (0.125 mg) were tested using IA-TCH delivery both containing equal amounts of fluorescein were evaluated. […] Animals were sacrificed 15 minutes after TAT injection. Brain tissue was harvested.

[5] = test system: 9L glioma; experiment: IA-TCH versus IV delivery: uptake by multi-spectral imaging of gross specimens; type: in vivo, rat
Description: Comparison of […] and IV TAT delivery. Fisher 344 rats weighing about 200 g were utilized. During initial surgery under ketamine-xylazine isoflurane anesthesia 5×10^5 9 L cells were implanted 3 mm below the skull and 2-3 mm posterior and lateral to the bregma through a 1 mm craniotomy. […] The animals were assigned separately to IV and IA-TCH groups. On the day of drug delivery, animals were sedated with isoflurane and injected with ketamine/xylazine. The tail vein was cannulated for intravenous access. Under aseptic precautions, a tracheostomy and carotid cannulation were performed. Anesthesia was maintained by mechanical ventilation with isoflurane (1.8-2.2%). Thereafter animals were turned prone on a stereotactic frame. The skull was exposed and the region of tumor implantation was shaved to transparency. A laser Doppler probe was implanted on the skull with the aid of a plastic holder to assess cerebral/tumor blood flow. Rectal temperature, pulse pleth (volume), pulse oxygen saturation, EKG, expired and inspired gas composition, brain and skin blood flow with lase Doppler were continuously monitored.
Transient cerebral hypoperfusion and fluorescein-labeled TAT monomer injection. IA injections were made during TCH by the following method. Reduction of blood flow was achieved by bolus IV injections of adenosine (2 mg) and esmolol (2 mg), and cold saline (1.5 mL at 4° C.). Typically such an intervention decreases cerebral blood flow to about 20% of the baseline. The heart rate response varies from sinus bradycardia to a sinus pause. However, physiological parameters rapidly recover within 3-5 minutes. […] For each animal, a test IA injection was done prior to the onset of hypotension to ensure delivery of the desired injection volume and the injection sequence was resumed after bolus IV injections of hypotensive drugs.
Postmortem imaging. In preliminary experiments, known quantities of fluorescein-labeled TAT monomer was dissolved in intralipid and imaged using the multi-spectral imaging system. The multi-spectral imaging system contained two 470 nm light emitting diodes that evenly illuminated the test sample (Thor Labs Inc., NJ). An Evolve-512 (Photometerics Inc., Tucson, AZ) photon multiplying charge coupled device was used to image the sample through a 530 nm band pass filter. The camera is capable of performing background corrections and measuring the photon counts from the region of interest. Imaging conditions (sample, light source, and camera placements) were standardized throughout the experiment.
Immediately after sacrifice, the brains were harvested and immersed in cold saline. […] Samples were loaded on two capillary glass tubes that were placed alongside the tissue samples. Typically each specimen had 4 sections, one of which through the plane of the tumor was sent for frozen section, the remainder were placed in paraformaldehyde for paraffin blocks and histological sectioning.

[6] = IV injection, confocal microscopy
[7] = IV injection, multi-spectral imaging

In the case of N=C(N)NCCC[C@H](NC(=O)CNC(=O)c1ccc2c(c1)C(=O)OC21c2ccc(O)cc2Oc2cc(O)ccc21)C(=O)N[C@@H](CCCCN)C(=O)N[C@@H](CCCCN)C(=O)N[C@@H](CCCNC(=N)N)C(=O)N[C@@H](CCCNC(=N)N)C(=O)N[C@@H](CCC(N)=O)C(=O)N[C@@H](CCCNC(=N)N)C(=O)N[C@@H](CCCNC(=N)N)C(=O)N[C@@H](CCCNC(=N)N)C(=O)N1CCC[C@H]1C(=O)N1CCC[C@H]1C(=O)N[C@@H](CCC(N)=O)C(=O)N[C@@H](CCC(N)=O)C(=O)O [fluorescein-labeled TAT monomer, 5-FAM-GRKKRRQRRR PPQQ-COOH], the Tumor selectivity ([1]; IA-TCH) is reported as 5-6 ×, the “Fluorescence in the tumor versus the contralateral hemisphere” value ([1]; IA-TCH, confocal microscopy) is reported as 10.78 × and the “Fluorescence in the tumor versus the ipsilateral brain tissue” value ([1]; IA-TCH, confocal microscopy) is reported as 5.07 ×. For the same molecule, the “Fluorescence in the tumor versus the contralateral hemisphere” value ([1]; IA-TCH, multi-spectral imaging) was 9.90 ×, the “Fluorescence in the tumor versus the ipsilateral brain tissue” value ([1]; IA-TCH, multi-spectral imaging) was 5.93 × and the “Fluorescence in the tumor versus the contralateral hemisphere” value [1, 6] was 2.61 ×. The “Fluorescence in the tumor versus the ipsilateral brain tissue” value [1, 6] was 2.43 ×, the “Fluorescence in the tumor versus the contralateral hemisphere” value [1, 7] was 2.72 × and the “Fluorescence in the tumor versus the ipsilateral brain tissue” value [1, 7] was 2.59 ×. For the same molecule, the Tumor selectivity ([1]; IV injections) was 2 ×, the “Tumor concentration, IA-TCH relative to IV” value ([1]; rat, in vivo, iv) was “about four-fold greater” and the “Tumor TAT deposition compared to the corresponding contralateral region” value ([2]; IA-TCH, N=8) was 11.7 fold. For the same molecule, the “Fluorescence in the tumor compared to the ipsilateral non-tumor regions” value ([2]; six animals, FIG. 19E) was 7.4 ×, the “Fluorescence in the tumor compared to the tumor site on the contralateral hemisphere” value ([2]; six animals, FIG. 19E) was 10.5 × and the Deposition by hemisphere ([3]; IA-TCH carotid injection, confocal microscopy) was “detectable deposition preferentially to the hemisphere ipsilateral to carotid injection”. For the same molecule, the “Parenchymal deposition versus dose” value ([3]; IA-TCH, dose range 0.25-1 mg) was “dose dependent increase”, the “Distribution in the brain (semi-quantitative)” value ([3]; IA-TCH, confocal microscopy) was “more diffuse deposition within the white matter” and the “Distribution in the brain” value ([3]; IV delivery of 0.5 mg, FIG. 17 F) was “diffuse uptake of TAT in and beyond the blood vessels was seen preferentially in the white matter”. The Tumor selective delivery [4] was “able to achieve tumor selective drug delivery”, the “Tumor concentration compared to brain tissue on the ipsi-lateral side” value ([5]; IA-TCH) was 6.1 fold and the Contralateral fluorescence ([5]; IA-TCH, n = 6) was 0.029 ± 0.012 AU. The Ipsi/contra-lateral ratio ([5]; IA-TCH, n = 6) was 1.7 ± 0.5, the Ipsilateral fluorescence ([5]; IA-TCH, n = 6) was 0.047 ± 0.019 AU and the Tumor fluorescence ([5]; IA-TCH, n = 6) was 0.277 ± 0.139 AU. The Tumor/contralateral ratio ([5]; IA-TCH, n = 6) was 10.1 ± 4.9, the Tumor/ipsilateral ratio ([5]; IA-TCH, n = 6) was 6.1 ± 2.6 and the “Tumor concentration compared to brain tissue on the ipsi-lateral side” value ([5]; IV) was 2.3 fold and 2.4 fold. For the same molecule, the Ipsi/contra-lateral ratio ([5]; IV, n = 6) was 1.1 ± 0.3, the Ipsilateral fluorescence ([5]; IV, n = 6) was 0.028 ± 0.005 AU and the Tumor fluorescence ([5]; IV, n = 6) was 0.063 ± 0.030 AU. The Tumor/contralateral ratio ([5]; IV, n = 6) was 2.7 ± 1.5, the Tumor/ipsilateral ratio ([5]; IV, n = 6) was 2.4 ± 1.2 and the “Overall effectiveness of IA-TCH relative to IV” value ([5]; rat, in vivo) was 4 ×.
